{
  "source": "paper PMC8306566",
  "about": "(Marine Drugs, 2021)",
  "assay_in_all_cases": "cell-based",
  "key": {"rα7 nAChR": {"molecular_target": "rα7 nAChR (Rattus norvegicus, UniProt Q05941)", "sequence (Q05941 23-502 limits assumed)": "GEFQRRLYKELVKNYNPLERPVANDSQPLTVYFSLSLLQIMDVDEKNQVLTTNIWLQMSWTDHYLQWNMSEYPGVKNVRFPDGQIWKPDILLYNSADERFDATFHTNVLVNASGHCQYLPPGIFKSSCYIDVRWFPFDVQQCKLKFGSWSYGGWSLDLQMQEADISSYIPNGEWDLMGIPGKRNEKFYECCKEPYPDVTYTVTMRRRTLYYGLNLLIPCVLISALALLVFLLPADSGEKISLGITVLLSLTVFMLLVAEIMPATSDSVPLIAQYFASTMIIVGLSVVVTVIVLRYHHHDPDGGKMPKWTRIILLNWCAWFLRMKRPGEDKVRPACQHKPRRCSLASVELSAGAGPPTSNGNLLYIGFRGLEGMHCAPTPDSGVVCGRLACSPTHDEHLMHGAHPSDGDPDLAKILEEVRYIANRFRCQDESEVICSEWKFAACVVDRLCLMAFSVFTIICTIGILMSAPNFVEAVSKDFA"}, "rα9α10 nAChR": {"molecular_target": "rα9α10 nAChR (Rattus norvegicus, UniProt P43144+Q9JLB5)"}, "rα4β4 nAChR": {"molecular_target": "rα4β4 nAChR (Rattus norvegicus, UniProt P09483+P12392)"}, "rα4β2 nAChR": {"molecular_target": "rα4β2 nAChR (Rattus norvegicus, UniProt P09483+P12390)"}, "rα6/α3β4 nAChR": {"molecular_target": "rα6/α3β4 nAChR (Rattus norvegicus, UniProt P04757+P12392+P43143)", "sequence (P04757 whole entry, looked up)": "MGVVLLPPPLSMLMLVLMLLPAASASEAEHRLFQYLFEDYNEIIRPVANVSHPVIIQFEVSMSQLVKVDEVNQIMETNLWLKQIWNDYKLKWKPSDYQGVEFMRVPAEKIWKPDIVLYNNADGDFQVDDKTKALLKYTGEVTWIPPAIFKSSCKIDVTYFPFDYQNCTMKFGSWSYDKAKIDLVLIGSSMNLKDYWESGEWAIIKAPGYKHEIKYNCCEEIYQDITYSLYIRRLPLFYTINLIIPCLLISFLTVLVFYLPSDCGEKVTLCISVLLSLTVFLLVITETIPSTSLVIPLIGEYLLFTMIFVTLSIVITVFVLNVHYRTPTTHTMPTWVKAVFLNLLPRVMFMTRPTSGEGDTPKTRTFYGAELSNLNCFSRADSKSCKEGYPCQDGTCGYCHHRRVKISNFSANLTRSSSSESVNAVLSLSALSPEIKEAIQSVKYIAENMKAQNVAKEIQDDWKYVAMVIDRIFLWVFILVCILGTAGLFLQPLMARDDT", "sequence (P12392 whole entry, looked up)": "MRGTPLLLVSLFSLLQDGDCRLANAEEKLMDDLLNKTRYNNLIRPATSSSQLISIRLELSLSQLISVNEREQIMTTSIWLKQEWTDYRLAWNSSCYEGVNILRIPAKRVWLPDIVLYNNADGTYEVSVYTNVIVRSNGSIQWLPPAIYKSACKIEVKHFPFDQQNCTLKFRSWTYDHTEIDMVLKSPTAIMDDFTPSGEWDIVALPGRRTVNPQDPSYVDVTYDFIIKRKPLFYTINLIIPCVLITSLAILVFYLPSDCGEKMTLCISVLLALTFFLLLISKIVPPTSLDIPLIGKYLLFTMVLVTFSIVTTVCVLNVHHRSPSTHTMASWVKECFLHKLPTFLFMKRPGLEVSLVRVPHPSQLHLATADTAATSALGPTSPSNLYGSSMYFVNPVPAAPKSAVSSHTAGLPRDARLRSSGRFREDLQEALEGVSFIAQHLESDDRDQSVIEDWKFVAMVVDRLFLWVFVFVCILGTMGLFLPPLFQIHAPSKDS", "sequence (P43143 whole entry, looked up)": "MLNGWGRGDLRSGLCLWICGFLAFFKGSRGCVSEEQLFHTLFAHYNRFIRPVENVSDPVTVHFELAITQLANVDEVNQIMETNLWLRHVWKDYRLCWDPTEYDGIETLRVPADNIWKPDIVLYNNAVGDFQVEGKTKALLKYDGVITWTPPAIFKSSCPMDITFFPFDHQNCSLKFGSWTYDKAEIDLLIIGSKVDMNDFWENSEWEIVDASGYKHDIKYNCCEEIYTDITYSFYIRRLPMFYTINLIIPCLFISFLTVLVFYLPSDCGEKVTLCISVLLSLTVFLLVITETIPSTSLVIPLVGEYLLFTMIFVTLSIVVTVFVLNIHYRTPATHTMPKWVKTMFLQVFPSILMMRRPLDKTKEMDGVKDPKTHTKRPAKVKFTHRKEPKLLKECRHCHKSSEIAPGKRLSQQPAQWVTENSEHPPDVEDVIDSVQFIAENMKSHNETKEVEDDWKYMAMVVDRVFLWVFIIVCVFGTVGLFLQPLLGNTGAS"}, "rα6/α3β2β3 nAChR": {"molecular_target": "rα6/α3β2β3 nAChR (Rattus norvegicus, UniProt P04757+P12390+P12391+P43143)", "sequence (P04757 whole entry, looked up)": "as the sequence (P04757 whole entry, looked up) above", "sequence (P12390 whole entry, looked up)": "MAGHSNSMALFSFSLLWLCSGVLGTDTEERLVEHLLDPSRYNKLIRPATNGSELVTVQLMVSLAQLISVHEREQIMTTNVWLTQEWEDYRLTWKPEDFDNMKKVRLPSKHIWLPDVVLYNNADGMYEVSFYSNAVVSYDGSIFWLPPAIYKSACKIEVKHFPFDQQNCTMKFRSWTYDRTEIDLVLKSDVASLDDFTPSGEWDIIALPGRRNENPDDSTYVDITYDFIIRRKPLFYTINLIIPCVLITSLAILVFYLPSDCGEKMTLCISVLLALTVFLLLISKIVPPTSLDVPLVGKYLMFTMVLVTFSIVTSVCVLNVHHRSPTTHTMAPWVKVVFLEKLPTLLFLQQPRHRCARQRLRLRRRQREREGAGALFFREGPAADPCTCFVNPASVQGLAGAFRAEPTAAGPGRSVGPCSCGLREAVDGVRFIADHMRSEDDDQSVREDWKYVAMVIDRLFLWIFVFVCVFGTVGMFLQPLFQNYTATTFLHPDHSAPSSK", "sequence (P12391 whole entry, looked up)": "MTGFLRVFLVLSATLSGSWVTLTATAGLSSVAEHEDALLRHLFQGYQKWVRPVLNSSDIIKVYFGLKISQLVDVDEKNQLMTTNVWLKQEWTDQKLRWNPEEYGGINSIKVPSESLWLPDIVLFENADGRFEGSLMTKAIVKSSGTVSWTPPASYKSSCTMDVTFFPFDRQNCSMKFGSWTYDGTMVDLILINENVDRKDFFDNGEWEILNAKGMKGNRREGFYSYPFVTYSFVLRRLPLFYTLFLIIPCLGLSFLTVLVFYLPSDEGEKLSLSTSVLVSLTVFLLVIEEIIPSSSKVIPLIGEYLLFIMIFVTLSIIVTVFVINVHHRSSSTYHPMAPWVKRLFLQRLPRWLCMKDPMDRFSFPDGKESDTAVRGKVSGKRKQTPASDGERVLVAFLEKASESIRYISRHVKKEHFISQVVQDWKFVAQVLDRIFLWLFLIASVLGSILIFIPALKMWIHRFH", "sequence (P43143 whole entry, looked up)": "as the sequence (P43143 whole entry, looked up) above"}, "rα3β4 nAChR": {"molecular_target": "rα3β4 nAChR (Rattus norvegicus, UniProt P04757+P12392)", "sequence (P04757 26-499 limits assumed)": "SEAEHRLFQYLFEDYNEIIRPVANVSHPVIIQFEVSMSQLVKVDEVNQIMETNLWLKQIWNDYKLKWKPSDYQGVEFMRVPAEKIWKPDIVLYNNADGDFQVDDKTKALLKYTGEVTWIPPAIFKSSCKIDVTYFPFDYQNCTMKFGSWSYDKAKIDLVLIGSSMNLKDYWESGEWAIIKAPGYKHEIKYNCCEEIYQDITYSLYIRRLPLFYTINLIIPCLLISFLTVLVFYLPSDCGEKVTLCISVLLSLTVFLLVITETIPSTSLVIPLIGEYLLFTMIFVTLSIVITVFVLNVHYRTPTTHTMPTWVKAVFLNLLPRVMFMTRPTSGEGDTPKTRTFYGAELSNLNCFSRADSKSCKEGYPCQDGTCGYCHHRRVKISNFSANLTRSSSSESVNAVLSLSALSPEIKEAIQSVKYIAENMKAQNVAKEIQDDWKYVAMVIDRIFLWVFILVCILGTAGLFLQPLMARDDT", "sequence (P12392 21-495 limits assumed)": "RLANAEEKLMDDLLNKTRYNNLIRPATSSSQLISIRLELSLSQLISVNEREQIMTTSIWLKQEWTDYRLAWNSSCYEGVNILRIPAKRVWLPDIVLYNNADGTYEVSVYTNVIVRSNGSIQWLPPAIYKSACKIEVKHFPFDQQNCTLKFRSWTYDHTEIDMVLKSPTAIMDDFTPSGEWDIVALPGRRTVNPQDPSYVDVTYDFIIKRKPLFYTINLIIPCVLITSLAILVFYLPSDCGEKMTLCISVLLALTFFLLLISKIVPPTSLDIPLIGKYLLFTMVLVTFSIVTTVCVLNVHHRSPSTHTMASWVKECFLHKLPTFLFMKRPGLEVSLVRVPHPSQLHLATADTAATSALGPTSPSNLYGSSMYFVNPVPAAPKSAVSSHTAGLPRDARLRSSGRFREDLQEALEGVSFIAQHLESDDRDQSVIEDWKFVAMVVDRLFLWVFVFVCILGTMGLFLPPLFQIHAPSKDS", "format": "cell-based"}, "rα2β4 nAChR": {"molecular_target": "rα2β4 nAChR (Rattus norvegicus, UniProt P12389+P12392)"}, "rα3β2 nAChR": {"molecular_target": "rα3β2 nAChR (Rattus norvegicus, UniProt P04757+P12390)", "sequence (P04757 26-499 limits assumed)": "as the sequence (P04757 26-499 limits assumed) above", "sequence (P12390 25-500 limits assumed)": "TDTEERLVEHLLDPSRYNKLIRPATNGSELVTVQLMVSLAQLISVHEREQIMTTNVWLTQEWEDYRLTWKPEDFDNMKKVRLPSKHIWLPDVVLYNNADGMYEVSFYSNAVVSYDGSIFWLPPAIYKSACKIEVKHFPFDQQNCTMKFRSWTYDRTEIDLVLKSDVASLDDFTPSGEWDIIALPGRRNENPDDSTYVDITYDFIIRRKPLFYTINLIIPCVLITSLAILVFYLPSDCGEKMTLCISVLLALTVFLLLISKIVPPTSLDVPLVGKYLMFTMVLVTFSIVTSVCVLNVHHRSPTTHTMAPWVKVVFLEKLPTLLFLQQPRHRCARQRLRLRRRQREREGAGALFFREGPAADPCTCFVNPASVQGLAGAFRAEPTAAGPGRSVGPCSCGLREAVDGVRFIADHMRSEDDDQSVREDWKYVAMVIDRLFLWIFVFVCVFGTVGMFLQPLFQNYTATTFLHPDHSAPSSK"}, "rα2β2 nAChR": {"molecular_target": "rα2β2 nAChR (Rattus norvegicus, UniProt P12389+P12390)"}},
  "data": [
    {"smiles": "CC[C@H](C)[C@@H]1NC(=O)[C@H](CC(=O)O)NC(=O)[C@H](CCC(N)=O)NC(=O)[C@H](CC(N)=O)NC(=O)[C@H](CC(N)=O)NC(=O)CNC(=O)[C@H](C)NC(=O)[C@@H]2CSSC[C@H](NC(=O)CN)C(=O)N[C@@H](CSSC[C@@H](C(N)=O)NC1=O)C(=O)N[C@@H](CO)C(=O)N[C@@H](Cc1c[nH]cn1)C(=O)N1CCC[C@H]1C(=O)N[C@@H](C)C(=O)N2", "note": "[LvIF]", "values": [
      {"measurement": "IC50", "setting": "rα7 nAChR", "value": "> 10", "unit": "µM"},
      {"measurement": "inhibition at 10 µM", "setting": "rα7 nAChR; read-out: inhibition at 10 μM", "value": "12.3 ± 4.2", "unit": "%"},
      {"measurement": "IC50", "setting": "rα9α10 nAChR", "value": "> 10", "unit": "µM"},
      {"measurement": "inhibition at 10 µM", "setting": "rα9α10 nAChR; read-out: inhibition at 10 μM", "value": "1.31 ± 5.2", "unit": "%"},
      {"measurement": "IC50", "setting": "rα4β4 nAChR", "value": "> 10", "unit": "µM"},
      {"measurement": "inhibition at 10 µM", "setting": "rα4β4 nAChR; read-out: inhibition at 10 μM", "value": "8.6 ± 4.2", "unit": "%"},
      {"measurement": "IC50", "setting": "rα4β2 nAChR", "value": "> 10", "unit": "µM"},
      {"measurement": "inhibition at 10 µM", "setting": "rα4β2 nAChR; read-out: inhibition at 10 μM", "value": "4.6 ± 2.5", "unit": "%"},
      {"measurement": "IC50", "setting": "rα6/α3β4 nAChR", "value": "> 10", "unit": "µM"},
      {"measurement": "inhibition at 10 µM", "setting": "rα6/α3β4 nAChR; read-out: inhibition at 10 μM", "value": "2.3 ± 3.3", "unit": "%"},
      {"measurement": "IC50", "setting": "rα6/α3β2β3 nAChR", "value": 14.4, "unit": "nM"},
      {"measurement": "inhibition at 0.01 µM", "setting": "rα6/α3β2β3 nAChR; read-out: inhibition at 10 nM", "value": "~39", "unit": "%"},
      {"measurement": "inhibition at 10 µM", "setting": "rα6/α3β2β3 nAChR; read-out: inhibition at 10 μM", "value": "98.3 ± 0.3", "unit": "%"},
      {"measurement": "IC50", "setting": "rα3β4 nAChR", "value": "> 10", "unit": "µM"},
      {"measurement": "inhibition at 1 μM", "setting": "rα3β4 nAChR", "value": "no inhibition"},
      {"measurement": "IC50", "setting": "rα2β4 nAChR", "value": "> 10", "unit": "µM"},
      {"measurement": "inhibition at 10 µM", "setting": "rα2β4 nAChR; read-out: inhibition at 10 μM", "value": "9.5 ± 2.4", "unit": "%"},
      {"measurement": "IC50", "setting": "rα3β2 nAChR", "value": 8.98, "unit": "nM"},
      {"measurement": "inhibition at 0.01 µM", "setting": "rα3β2 nAChR; read-out: inhibition at 10 nM", "value": "~57", "unit": "%"},
      {"measurement": "inhibition at 10 µM", "setting": "rα3β2 nAChR; read-out: inhibition at 10 μM", "value": "98.3 ± 0.6", "unit": "%"},
      {"measurement": "IC50", "setting": "rα2β2 nAChR", "value": "> 10", "unit": "µM"},
      {"measurement": "inhibition at 10 µM", "setting": "rα2β2 nAChR; read-out: inhibition at 10 μM", "value": "6.7 ± 4.5", "unit": "%"}
    ]}
  ]
}
